Measurements published in patent publication US11319299B2, “Substituted carboxamides as inhibitors of WDR5 protein-protein binding” (PROPELLON THERAPEUTICS INC., priority 2016, dated 2022).

These compounds were tested against WDR5 (Homo sapiens (Human), UniProt P61964) (assay: Surface Plasmon Resonance (SPR) assay, KD and residence time). Conditions: surface plasmon resonance (SPR) assay; read-out: WDR5 binding affinity (KD).
Format: binding

Question: C[C@@H]1CN(c2cc(F)c(-c3cnc(N4CCOCC4)nc3)cc2NC(=O)c2cccc(F)c2C(F)(F)F)C[C@H](C)N1C [Example 295, 3-fluoro-N-[4-fluoro-5-(2-morpholin-4-ylpyrimidin-5-yl)-2-[(3R,5S)-3,4,5-trimethylpiperazin-1-yl]phenyl]-2-(trifluoromethyl)benzamide] was tested. Which Kd did it give?
Answer: 11.1 nM

Question: How did the Kd turn out when C[C@@H]1CN(c2cc(F)c(-c3cnc(N4CCOCC4)nc3)cc2NC(=O)c2cc(F)c(F)c(F)c2)C[C@H](C)N1C [Example 296, 3,4,5-trifluoro-N-[4-fluoro-5-(2-morpholin-4-ylpyrimidin-5-yl)-2-[(3R,5S)-3,4,5-trimethylpiperazin-1-yl]phenyl]benzamide] was run?
Answer: 21.2 nM

Question: For C[C@@H]1CN(c2cc(F)c(-c3cnc(N4CCOCC4)nc3)cc2NC(=O)c2c(F)cccc2C(F)(F)F)C[C@H](C)N1C [Example 297, 2-fluoro-N-[4-fluoro-5-(2-morpholin-4-ylpyrimidin-5-yl)-2-[(3R,5S)-3,4,5-trimethylpiperazin-1-yl]phenyl]-6-(trifluoromethyl)benzamide], which Kd is on record?
Answer: 22.9 nM

Question: For CCCN(C)C1CCN(c2cc(F)c(-c3cnc(N4CCOCC4)nc3)cc2NC(=O)c2c[nH]c(=O)cc2C(F)(F)F)C1 (stereo not shown) [Example 303, N-[4-fluoro-2-[3-[methyl(propyl)amino]pyrrolidin-1-yl]-5-(2-morpholin-4-ylpyrimidin-5-yl)phenyl]-6-oxo-4-(trifluoromethyl)-1H-pyridine-3-carboxamide], which Kd is on record?
Answer: 1.68 nM

Question: Which Kd does the source give for C[C@@H]1CN(c2cc(F)c(C3=CCN(C(=O)CN(C)C)CC3)cc2NC(=O)c2c[nH]c(=O)cc2C(F)(F)F)C[C@H](C)N1C [Example 305, N-[5-[1-[2-(dimethylamino)acetyl]-3,6-dihydro-2H-pyridin-4-yl]-4-fluoro-2-[(3R,5S)-3,4,5-trimethylpiperazin-1-yl]phenyl]-6-oxo-4-(trifluoromethyl)-1H-pyridine-3-carboxamide] here?
Answer: 2.61 nM

Question: C[C@@H]1CN(c2cc(F)c(-c3cnc(N4CCN(C(=O)CCC(=O)O)CC4)nc3)cc2NC(=O)c2c[nH]c(=O)cc2C(F)(F)F)C[C@H](C)N1C [Example 306, 4-[4-[5-[2-fluoro-5-[[6-oxo-4-(trifluoromethyl)-1H-pyridine-3-carbonyl]amino]-4-[(3R,5S)-3,4,5-trimethylpiperazin-1-yl]phenyl]pyrimidin-2-yl]piperazin-1-yl]-4-oxobutanoic acid] was tested. Which Kd did it give?
Answer: 0.789 nM

Question: How did the Kd turn out when C[C@@H]1CN(c2cc(F)c(C3=CCN(C(=O)OC(C)(C)C)CC3)cc2NC(=O)c2cn(C)c(=O)cc2C(F)(F)F)C[C@H](C)N1C [Example 313, tert-butyl 4-[2-fluoro-5-[[-methyl-6-oxo-4-(trifluoromethyl)pyridine-3-carbonyl]amino]-4-[(3R,5S)-3,4,5-trimethylpiperazin-1-yl]phenyl]-3,6-dihydro-2H-pyridine-1-carboxylate] was run?
Answer: 3.1 nM

Question: Which Kd does the source give for C[C@@H]1CN(c2cc(F)c(-c3ccc(OCC4CC4)nc3)cc2NC(=O)c2c[nH]c(=O)cc2C(F)F)C[C@H](C)N1C [Example 314, N-[5-[6-(cyclopropylmethoxy)pyridin-3-yl]-4-fluoro-2-[(3R,5S)-3,4,5-trimethylpiperazin-1-yl]phenyl]-4-(difluoromethyl)-6-oxo-1H-pyridine-3-carboxamide] here?
Answer: 1.67 nM

Question: With CCn1cc(C(=O)Nc2cc(-c3cnc(N4CCOCC4)nc3)c(F)cc2N2C[C@@H](C)N(C)[C@@H](C)C2)c(C(F)(F)F)cc1=O [Example 315, 1-ethyl-N-[4-fluoro-5-(2-morpholin-4-ylpyrimidin-5-yl)-2-[(3R,5S)-3,4,5-trimethylpiperazin-1-yl]phenyl]-6-oxo-4-(trifluoromethyl)pyridine-3-carboxamide] as the compound, how does the Kd read?
Answer: 8.49 nM

Question: C[C@@H]1CN(c2cc(F)c(-c3cnc(N4CC(C)(C)OC(C)(C)C4)nc3)cc2NC(=O)c2c[nH]c(=O)cc2C(F)(F)F)C[C@H](C)N1C [Example 320, N-[4-fluoro-2-[(3R,5S)-3,4,5-trimethylpiperazin-1-yl]-5-[2-(2,2,6,6-tetramethylmorpholin-4-yl)pyrimidin-5-yl]phenyl]-6-oxo-4-(trifluoromethyl)-1H-pyridine-3-carboxamide] was tested. Which Kd did it give?
Answer: 0.722 nM
